Article PMC11148772, “Inhibition of protein translational machinery in triple-negative breast cancer as a promising therapeutic strategy” (Cell Reports Medicine, 2024)
Where “and” joins values, the source holds several entries; their conditions need not be identical. Identical values can stand only once.

Tests used:
4T1 lung metastasis = assay: Orthotopic 4T1 model, lung metastasis; format: in vivo, mouse; settings: orthotopic 4T1, 50 mg/kg, lung metastatic nodules counted
From the text: Data S2. Effect of SU056 treatment on body weight, metastatic potential and pharmacokinetic profiling of SU056, related to Figure 2 and 3
Human, mouse and PDX models of TNBC were used for tumor xenograft studies. SU056 treatment was started when tumors reached around ~25-50 mm3 and continued until the experiment reached its 3-week endpoint. Body weight was monitored throughout the study to understand any change in dietary pattern. Body weights of A) MDA-MB-231, B) MDA-MB-468, C) 4T1, D) EMT6, E) CA1616-PDX-TNBC, F) CA1262-PDX-TNBC, G) MA2821-PDX-TNBC and H) SUTI151-PDX-TNBC over time. I) Tumor volume, J) Tumor weight and K) The bar graph represents lung metastatic nodules in 4T1 orthotopic models. L) Representative images of lungs at the end of the treatment cycle. M) Mice were treated with 20 mg/kg SU056 orally. Cmax (maximum serum concentration), Tmax (time to reach Cmax), and T1/2 (elimination half-life of compound). N) Human liver microsomes were used for the purpose of metabolic profiling.
Data are shown as mean ± SD. Error bars represent ± SD.
*p < 0.05, **p < 0.01, ***p < 0.001 and ****p < 0.0001. Significant difference compared with respective control by Student’s t test or one-way ANOVA followed by Dunnett’s test.

Pharmacokinetics study = format: in vivo, mouse; settings: 20 mg/kg oral
Protocol: Female C57BL/6J mice of 6–7 weeks were purchased from Jackson Laboratory and housed under standard laboratory conditions. SU056 (20 mg/kg) was given by oral gavage. Blood (200–300 μL) was collected retro-orbitally in EDTA-treated tubes after 15, 30, 60, 120, 240 and 360 min of SU056 administration. Blood plasma collected by centrifugation (7000 rpm; 10 min). The concentration of SU056 in plasma was analyzed using an Agilent 6490 iFunnel triple quadrupole mass spectrometer, coupled with an Agilent 1290 infinity II UHPLC. A ZORBAX C18 analytical column (Eclipse Plus, 2.1 × 50 mm, 1.8 μm particle size) was employed in the study. To create the mobile phase, a solution was prepared with 60% water buffered with 0.1% formic acid and 4mM ammonium formate, along with a solution of 40% acetonitrile buffered with 0.1% formic acid. The mobile phase flow rate was set to 0.4 mL/min and the column temperature was adjusted to 30°C. Positive ion mode was selected for operating the electrospray ionization source. Mass spectrometer parameters were optimized as: source temperature 550°C, nebulizer gas (nitrogen) 20 psi, ion spray (IS) voltage 5000 V, collision energy 21 V. Multiple reaction monitoring (MRM) method was used for the detection of SU056 and an internal standard (IS), 4-(2-hydroxyethyl)-6-methoxy-9-phenyl-4,9-dihydrofuro[3,4-b]quinolin-1(3H)-one, a similar analogue of SU056. […] The calibration curve, created with known concentrations of SU056 and IS, enabled the calculation of unknown concentrations of SU056 in plasma at different time points. A 5 μL plasma was taken from each sample and mixed with a 10 μL of IS solution and 990 μL of MS-grade acetonitrile then vortexed for 30 s followed by a 5 min incubation at RT. The mixture was subjected to centrifugation at 11,000 RPM for 15 min at 4°C, leading to the collection of the supernatant which was further cleaned by re-centrifugation. The concentration of SU056 was determined using the HPLC/MS MRM method with each of the three protein-free plasma fractions.[32]

MDA-MB-231 cells = assay: Polysome profiling; format: cell-based, human; settings: 1 μM, 12 h
Protocol: 1 x 10^6 MDA-MB-231 cells were plated in 100 mm culture plate and allowed to be attached for 24 h. Next day, cells were treated with vehicle or SU056 (1 μM) for 12 h in regular culture medium. Next, cells were incubated with cycloheximide (10 μg/mL) for 5 min at 37°C. Cells were then washed twice in 1x PBS with 10 μg/mL cycloheximide and collected by trypsinization and snap freeze in liquid nitrogen. Cell pellet was lysated in 250 μL polysome lysis buffer (5 mM Tris-HCl [pH 7.4], 1.5 mM KCl, 2.5 mM MgCl2, 0.1 mg/mL cycloheximide, 100 U/mL RNasin, 1× EDTA-free Complete protease inhibitor cocktail, 2 mM DTT, 0.5% Triton X-100, 0.5% deoxycholate). Lysate were quantified taking absorbance at 260 nm using Nanodrop and loaded on a linear 15%–50% sucrose gradient. The gradients were ultracentrifuged SW41Ti rotor (Beckman) for 1 h and 30 min at 180,000 g at 4°C in Beckman Optima LE-80K Ultracentrifuge. The gradients were fractionated in 1 mL volume fractions with continuous monitoring absorbance at 254 nm using an ISCO UA-6 UV detector at Immagina Biotechnology, Pergine, Italy.

[1] = test system: TNBC cells (MDA-MB-231, MDA-MB-468, SUM159); assay: Immunoblot assay of cell lysates; format: cell-based, human; settings: MDA-MB-231 and MDA-MB-468, 1 and 2 μM
[2] = mouse, female C57BL/6J mice, plasma

For O=C1OCC2=C1C(c1cccc(F)c1)c1cc3c(cc1N2CCO)OCO3 (centres unmarked) [SU056, 9-(3-fluorophenyl)-5-(2-hydroxyethyl)-6,9-dihydro-[1,3]dioxolo[4,5-g]furo[3,4-b]quinolin-8(5H)-one], the “decrease in lung metastasis compared to control” value (4T1 lung metastasis) was 65.5%, the “time a cytotoxic concentration remained in the plasma” value (Pharmacokinetics study; mice) was “up to 6 h” and the half-life (Pharmacokinetics study; female, C57BL/6J, mouse, plasma, po, 20 mg/kg, female C57BL/6J mice, plasma, read-out: half-life (T1/2)) was ~60 min. The Cmax (Pharmacokinetics study; [2]) was 9980 ng/mL and 27 µM, the Tmax (Pharmacokinetics study; [2]) was 15 min and the “translational efficiency compared to control cells” value (MDA-MB-231 cells) was “reduced translational efficiency”. For the same molecule, the BCL-2 expression [1] was “inhibited” and the Bax expression [1] was “induced”.
